Experimental data reported in US4438201A, “Amidohydrolase having ability to depantothenylate an antibiotic” (Sanraku-Ocean Co., Ltd., priority 1981, dated 1984).

How the values were obtained:
[1] = test system: amidohydrolase (enzyme of this invention); experiment: Effects of metal ions, chelating agents and -SH inhibitors on enzyme activity; format: biochemical, Streptomyces fulvoviridis A933
Protocol: (§1) Ten microliters of 0.2 M piperazine-N,N'-bis(2-ethanesulfonic acid) [=PIPES] buffer, pH 7.3, and 10 μl of 100 mM N-chloroacetyl-L-phenylalanine (adjusted to pH 6-7 with NaOH) are dissolved in 20 μl of water. After 10 μl of an enzyme solution (30-50 μg/ml) is added, the mixture is incubated at 37° C. for 15 minutes. Then, 50 μl of 50% acetic acid is added to stop the enzymatic reaction. The amount of L-phenylalanine produced from the substrate in the reaction solution is determined by the Yemm-Cocking ninhydrin colorimetric method (E. W. Yemm & E. C. Cocking: Analyst, Vol. 80, page 209, 1955) or with an amino acid automatic analyzer (Model 835-50, Hitachi Limited).
The relative activity in Table 2 refers to the activity of the enzyme in the absence of such chemical as 100.

[2] = test system: amidohydrolase (enzyme of this invention); experiment: Experiment C: acyl transfer from acyl-CoA to 6-APA; format: biochemical, Streptomyces fulvoviridis A933; settings: acetyl-CoA or glutaryl-CoA; 37° C., 3 hours
Protocol: 0.2 M Potassium phosphate buffer, pH 7.4 (10 μl), 10 μl of 6-aminopenicillanic acid (6-APA) (500 μg/ml), 20 μl of acyl-CoA (5 μmoles/ml) and 10 μl of the enzyme preparation from Example 1 were mixed and incubated at 37° C. for 3 hours. The products were analyzed by HVPE in the same way as in Example 2, employing acetic acid buffer, pH 4.5 Acetyl-CoA and glutaryl-CoA were used as acyl-CoA.
The controls were the same reaction mixtures minus enzyme solution and acyl-CoA respectively.

[3] = test system: amidohydrolase (enzyme of this invention); experiment: Substrate specificity for N-acyl-amino acids (deacylation, standard assay); format: biochemical, Streptomyces fulvoviridis A933; settings: N-chloroacetyl-L-phenylalanine as 100
Protocol: The relative activity in Table 1 refers to N-chloroacetyl-L-phenylalanine as 100.
as §1

[4] = test system: amidohydrolase (enzyme of this invention); experiment: Experiment A: action of the enzyme on PS-5 and OA-6129A, HVPE bioautography and pantothenate bioassay; format: biochemical, Streptomyces fulvoviridis A933
Protocol: A mixture (50 μl) consisting of 10 μl of 0.2 M potassium phosphate buffer, pH 7.4, 20 μl of an antibiotic PS-5 solution (500 μg/ml) or an antibiotic OA-6129A solution (500 μg/ml), 10 μl of the enzyme solution obtained in Example 1, and 10 μl of water was incubated at 37° C. for 3 hours.
As a control, the mixture minus the enzyme solution was allowed to react under the same conditions.
3 μl of each of the resulting reaction solutions was spotted on Watmann No. 1 filter paper, and subjected to electrophoresis for 50 minutes at 1500 V/30 cm with Veronal buffer, pH 8.6. After electrophoresis, the products were bioautographed with Comamonas terrigena B-996 as assay organism.

[5] = test system: cell-free homogenate of Streptomyces argenteolus; experiment: Example 4: action of cell-free homogenate on PS-5 and OA-6129A; format: biochemical; settings: tested as in Example 3
Protocol: Glycerol (4 g), 0.5 g of peptone, 0.2 g of glucose, 0.2 g of soluble starch, 0.5 g of Essan Miit®, 0.5 g of dry yeast, 0.5 g of NaCl and 0.2 g of CaCO3 were dissolved in 100 ml of tap water. Each 25 ml portion of the suspension was distributed in 250 ml Erlenmeyer flasks, and sterilized at 120° C. for 15 minutes. After cooling the culture medium, Streptomyces argenteolus was inoculated and cultivated at 28° C. for 68 hours with shaking. 20 ml of a cell extract was obtained. The same procedure of treatment as in Example 1 yielded 20 ml of a cell-free homogenate which was tested as explained in Example 3.

[6] = test system: cell-free homogenate of Streptomyces cremeus subsp. auratilis; experiment: Example 3: action of cell-free homogenate on PS-5 and OA-6129A; format: biochemical; settings: 37° C., 4 hours
Protocol: Soluble starch (5.2 g), 1.2 g of Essan-Miit, 0.16 g of NaCl, 0.08 g of K2 HPO4 and 0.04 g of MgSO4.7H2 O were dissolved in 80 ml of tap water and 40 ml portions of the suspension were filled in two 250 ml Erlenmeyer flasks. After autoclaving at 120° C. for 15 minutes, Streptomyces cremeus subsp. auratilis was inoculated, and cultivated at 28° C. for 68 hours. Using the same procedure as in Example 1, 20 ml of the cell-free homogenate was obtained. For confirmation of the enzyme activity, the following reactions were studied.
A mixture (50 μl) consisting of 10 μl of 0.2 M potassium phosphate buffer, pH 7.4, 10 μl of an antibiotic PS-5 solution (500 μg/ml) or an antibiotic OA-6129A solution (500 μg/ml), 20 μl of the cell-free homogenate and 10 μl of water was kept at 37° C. for 4 hours. The products were assayed by HVPE in the same way as in Experiment A.
As a control, the above reaction was carried out without the cell-free homogenate.

[7] = test system: amidohydrolase (enzyme of this invention); experiment: Experiment B: acyl exchange of OA-6129A with acyl-CoA; format: biochemical, Streptomyces fulvoviridis A933; settings: acetyl-, n-propionyl-, n-butyryl- or glutaryl-CoA; 37° C., 3 hours
Protocol: A mixture consisting of 10 μl of 0.2 M potassium phosphate buffer, pH 7.4, 10 μl of a solution of antibiotic OA-6129A (500 μg/ml), 10 μl of acyl-CoA (5 μmoles/ml), 10 μl of the enzyme preparation from Example 1 and 10 μl of water was allowed to react at 37° C. for 3 hours. The product was assayed by high voltage paper electrophoresis (HVPE) in the same way as in Experiment A.
As controls, the same mixture minus acyl-CoA and the same mixture minus the enzyme solution were incubated under the same conditions as mentioned above.
Acetyl-CoA, n-propionyl-CoA, n-butyryl-CoA and glutaryl-CoA were used as acyl-CoA.

[8] = test system: cell-free homogenate of Streptomyces cattleya (acylase); experiment: Example 2: action of cell-free homogenate on PS-5 and OA-6129A; format: biochemical, Streptomyces cattleya (NRRL 8057)
Protocol: Glucose (2.5 g), 1 g of corn steep liquor, 0.5 g of Pharmamedia® (a product of Traders Oil Mill Company), 0.5 g of yeast extract and 0.3 g of CaCO3 were dissolved in 100 ml of tap water, and the pH of the suspension was adjusted to 7.0. Then, 50 ml portions of the suspension were distributed in 250 ml Erlenmeyer flasks, and sterilized at 120° C. for 15 minutes. After cooling Streptomyces cattleya (NRRL 8057) was inoculated, and the flasks were cultivated at 28° C. for 90 hours with shaking.
Mycelia were collected by centrifugation and treated by the same procedure as in Example 1 to give 20 ml of a cell-free homogenate. With this fresh homogenate, the enzymological properties of Streptomyces cattleya acylase were examined.
A mixture containing 10 μl of 0.2 M potassium phosphate buffer, pH 7.4, 10 μl of an antibiotic PS-5 solution (500 μg/ml) or an antibiotic OA-6129A solution (500 μg/ml), 10 μl of acyl-CoA (5 μmoles/ml) and 20 μl of the cell-free homogenate was incubated at 37° C. for 4 hours. The product was analysed by HVPE in the same manner as in Experiment A.
The control reaction mixtures contained either no cell-free homogenate or no acyl-CoA. Acetyl-CoA and n-propionyl-CoA were used as acyl-CoA.

[9] = additive 0.1 mM, activity without additive as 100, 15 min
[10] = additive 1 mM, activity without additive as 100, 15 min

Compound | Relative activity [1, 10] | Relative activity [3] | other results
[Cl][Hg][Cl] [HgCl2] | 0 | – | Relative activity ([1]; additive 0.01 mM, activity without additive as 100, 15 min): 84.5; Relative activity [1, 9]: 6.4
CC1(C)S[C@@H]2[C@H](N)C(=O)N2[C@H]1C(=O)O [6-APA, 6-aminopenicillanic acid] | – | – | Acyl transfer from acyl-CoA to the amino group [2]: converted to the corresponding acyl-6-APA
CC(=O)N[C@@H](C)C(=O)O [N--Acetyl-L-alanine] | – | 163.8 | –
[Cl][Pb][Cl] [PbCl2] | 58.8 | – | –
[Cl][Cd][Cl] [CdCl2] | 10.2 | – | –
CC(=O)N[C@H](C)C(=O)O [N--Acetyl-D-alanine] | – | 0 | –
CC(C)[C@H](NC(=O)CCl)C(=O)O [N--Chloroacetyl-L-valine] | – | 351.1 | –
[Cl-].[Cl-].[Mg+2] [MgCl2] | 93.6 | – | –
CSCC[C@@H](NC(C)=O)C(=O)O [N--Acetyl-D-methionine] | – | 0 | –
[Cl][Mn][Cl] [MnCl2] | 74.3 | – | –
CC(C)C[C@H](NC(=O)CCl)C(=O)O [N--Chloroacetyl-L-leucine] | – | 348.5 | –
CC(=O)N[C@@H](CC(C)C)C(=O)O [N--Acetyl-L-leucine] | – | 92.8 | –
[Co+2] [Co^++] | – | – | Effect of the ion on the enzyme (in words) ([1]; known acylases are activated or stabilized by 0.5 to 10 mM): inhibited
[Cl][Sn][Cl] [SnCl2] | 64.4 | – | –
O=C(O)CN(CCN(CC(=O)O)CC(=O)O)CC(=O)O [EDTA, ethylenediaminetetracetic acid] | – | – | Relative activity ([1]; pipes buffer, pH 7.3, 15 min, 1000 µM): 95.8
O=S(=O)([O-])[O-].[Fe+2] [FeSO4] | 53.2 | – | –
CCC1C(=O)N2C(C(=O)O)=C(SCCNC(=O)CCNC(=O)C(O)C(C)(C)CO)CC12 (stereo not drawn) [OA-6129A] | – | – | Depantothenylation of the substrate by the enzyme ([4]; 37° C., 3 hours, pH 7.4): removes the pantotheinyl group; Concentration of pantothenate in the reaction solution ([4]; bioassay with Saccharomyces carlsbergensis (ATCC 9080), enzyme present): 8 µg/mL; Depantothenylation by the cell-free homogenate [5]: does depantothenylate; Depantothenylation by the cell-free homogenate [6]: has the ability to eliminate the pantotheinyl group; Exchange of the pantotheinyl group with the acyl group of acyl-CoA [7]: catalyzes the exchange of the pantotheinyl group; Acyl exchange with acyl-CoA by the cell-free homogenate ([8]; acetyl-CoA present): transform to PS-5; Depantothenylation by the cell-free homogenate ([8]; without acyl-CoA, 37° C., 4 hours): catalyzes the depantothenylation
CC(=O)N[C@@H](CCC(=O)O)C(=O)O [N--Acetyl-L-glutamic acid] | – | 2.7 | –

Compound | Relative activity [1, 10] | Relative activity [3] | other results
c1cnc2c(c1)ccc1cccnc12 [o-PT, ophenanthroline] | 56.4 | – | –
CC(=O)N[C@@H](CCCCN)C(=O)O [N--α-Acetyl-L-lysine] | – | 39.8 | –
CC(=O)N[C@H](Cc1ccccc1)C(=O)O [N--Acetyl-D-phenylalanine] | – | 0 | –
CC(=O)N[C@H](C(=O)O)C(C)C [N--Acetyl-L-valine] | – | 32.4 | –
CSCC[C@H](NC(C)=O)C(=O)O [N--Acetyl-L-methionine] | – | 262.1 | –
CC(C)C[C@H](NC=O)C(=O)O [N--Formyl-L-leucine] | – | 16.4 | –
CSCC[C@H](NC=O)C(=O)O [N--Formyl-L-methionine] | – | 112.7 | –
CCC1C(=O)N2C(C(=O)O)=C(SCCNC(C)=O)CC12 (stereo not drawn) [PS-5] | – | – | Deacetylation of the substrate by the enzyme ([4]; 37° C., 3 hours, pH 7.4): did not attack antibiotic PS-5 at all; Deacetylation by the cell-free homogenate [5]: no ability to deacetylate; Deacetylation by the cell-free homogenate [6]: no ability to deacetylate; Susceptibility of the substrate to the cell-free homogenate ([8]; irrespective of the presence of acyl-CoA, 37° C., 4 hours): not susceptible
[Cl-].[Cl-].[Zn+2] [ZnCl2] | 7.7 | – | –
CC(=O)N[C@@H](Cc1ccccc1)C(=O)O [N--Acetyl-L-phenylalanine] | – | 15.3 | –
CC(=O)N[C@H](CC(C)C)C(=O)O [N--Acetyl-D-leucine] | – | 0 | –
O=S(=O)([O-])[O-].[Ni+2] [NiSO4] | 79.4 | – | –
[Cl][Cu][Cl] [CuCl2] | 0 | – | Relative activity [1, 9]: 87.5
CC(=O)NCC(=O)O [N--Acetyl-glycine] | – | 23.9 | –
[Cl-].[Cl-].[Co+2] [CoCl2] | 82.4 | – | Relative activity ([1]; additive 0.2 mM, activity without additive as 100, 15 min): 92.3; Relative activity ([1]; additive 2 mM, activity without additive as 100, 15 min): 3.8; Relative activity ([1]; additive 4 mM, activity without additive as 100, 15 min): 0
O=C(CCl)N[C@@H](Cc1ccccc1)C(=O)O [N--Chloroacetyl-L-phenylalanine] | – | 100 | –
CC(=O)N[C@@H](C(=O)O)C(C)C [N--Acetyl-D-valine] | – | 0 | –
O=C(O)c1cc[c]([Hg][Cl])cc1 [p-CMB, pchloromercuribenzoic acid] | 0 | – | –
